The values that follow come from patent US20220193386A1, “MICRONEEDLE ARRAYS FOR CANCER THERAPY APPLICATIONS” (University of Pittsburgh - Of the Commonwealth System of …, priority 2014, published 2022).

Data set [1] has as its system epidermal cells. The conditions noted are these: pyramidal CMC-microneedle arrays, 5 mg/g of CMC, arrays removed after 5 minutes, 72 hours of exposure. The procedure: Cytoxan® was integrated at a concentration of 5 mg/g of CMC, enabling delivery of approximately about 140 μg per array. This is a therapeutically relevant concentration based on the area of skin targeted, yet well below levels associated with systemic toxicities. Living human skin organ cultures were used to assess the cytotoxicity of Cytoxan®. Cytoxan® was delivered by application of arrays to skin explants as we previously described. Arrays and residual material were removed 5 minutes after application, and after 72 hours of exposure, culture living skin explants were cryo-sectioned and fixed. Apoptosis was evaluated using green fluorescent TUNEL assay (In Situ Cell Death Detection Kit, TMR Green, Roche, cat #:11-684-795-910).

Data set [2] concerns B16 melanoma. The data set can be described thus: B16 melanoma model: MNA treatment of established cutaneous tumors, tumor growth and survival. The conditions noted are these: MNAs once weekly for three weeks, established B16 skin tumors; for tumor growth: vs untreated; for survival: untreated 100% mortality, through day 70.
Experimental: The B16 melanoma model was used as a model tumor to test these novel approaches.
B16 skin tumors were established in normal mice by injection. Visible established cutaneous tumors were treated once weekly for three weeks with MNAs containing either doxorubicin alone, Poly(I:C) alone, or doxorubicin and Poly(I:C) incorporated into the same MNA. […] Tumor growth and survival were measured regularly for the duration of the study.
Data set [3] concerns human skin. The data set can be described thus: Apoptosis and necrosis in human skin at the doxorubicin MNA dose. The conditions noted are these: MNA dose of doxorubicin chosen for the B16 study.
In data set [4] the test system is OVA. The data set can be described thus: OVA-specific CTL activity in vivo after CMC-microneedle array immunization. Also on record: species or system mice. The conditions noted are these: pyramidal CMC-microneedle arrays on mouse ears, 5 minutes, boosted one week later. The source says: To directly evaluate the immunogenicity of CMC microneedle array incorporated antigens, the well characterized model antigen ovalbumin was used. Pyramidal arrays were fabricated incorporating either soluble ovalbumin (sOVA), particulate ovalbumin (pOVA), or arrays containing both pOVA along with CpGs. The adjuvant effects of CpGs are well characterized in animal models, and their adjuvanticity in humans is currently being evaluated in clinical trials.
Immunization was achieved by applying antigen containing CMC-microneedle arrays to the ears of anesthetized mice using a spring-loaded applicator as described above, followed by removal of the arrays 5 minutes after application. These pyramidal microneedle arrays contained about 5 wt % OVA in CMC and about 0.075 wt % (20 μM) CpG. As a positive control, gene gun based genetic immunization strategy using plasmid DNA encoding OVA was used.
Mice were immunized, boosted one week later, and then assayed for OVA-specific CTL activity in vivo. […] It is well established that similar responses require substantially higher doses of antigen when delivered by traditional needle injection.
To evaluate the stability of fabricated arrays, batches of arrays were fabricated, stored, and then used over an extended period of time. […]

For `O=P1(N(CCCl)CCCl)NCCCO1` (centres unmarked) [Cytoxan®, cyclophosphamide], the “apoptosis of epidermal cells (TUNEL)” value in data set [1] is listed as “extensive apoptosis of epidermal cells”. Consider `COc1cccc2c1C(=O)c1c(O)c3c(c(O)c1C2=O)C[C@@](O)(C(=O)CO)C[C@@H]3O[C@H]1C[C@H](N)[C@H](O)[C@H](C)O1` [doxorubicin], for which, in data set [2], the tumor growth entry was “slowed tumor growth” and the survival is reported as 30%. For the same molecule, the “apoptosis / necrosis in human skin” value in data set [3] is “induces apoptosis in human skin without causing necrosis”.

Regarding Poly(I:C), in data set [2], the tumor growth entry is “slowed tumor growth” and the survival is 50%. With “particulate OVA: particulate ovalbumin model antigen incorporated in pyramidal CMC microneedle arrays”, in data set [4], the “OVA-specific CTL activity in vivo” value is listed as “Significant OVA-specific CTL activity”.

Take “soluble OVA: soluble ovalbumin model antigen incorporated in pyramidal CMC microneedle arrays”: the “OVA-specific CTL activity in vivo” value in data set [4] was “Significant OVA-specific CTL activity”.
